Entries after “also recorded” stand apart in the source; their conditions may differ. Where a SMILES comes first, the peptide text is derived from it. [ ]: non-standard residue; d: D form.
Tests used:
[1] = tested on: mitochondria purified from B-lymphoblastoid Raji cells; experiment: Mitochondrial membrane potential of TMRM-loaded isolated mitochondria; format: biochemical, human
Procedure: (§1) Raji cells were treated with Shepherdin or control scrambled peptidomimetic (100 μM) or 17-AAG (5 μM), loaded with the mitochondrial membrane potential-sensitive fluorescent dye JC-1, and analyzed for changes in green/red fluorescence ratio by flow cytometry. For experiments in a cell-free system, purified mitochondria isolated from primary normal cells, various tumor cells types, or normal mouse organs were suspended in SB buffer. […] For these experiments, TMRM-loaded mitochondria in SB buffer were allowed to reach stable fluorescence, which was set as fully polarized state (maximum membrane potential). The fluorescence intensity after treatment with 2 mM CaCl2 was set as minimum membrane potential (fully depolarized state). Changes in fluorescence intensity after each treatment were plotted as a ratio between maximum and minimum membrane potential.

[2] = tested on: purified HeLa cell mitochondria; experiment: as above; format: biochemical, human; conditions: TMRM-loaded HeLa cell (tumor) mitochondria
Procedure: as §1

[3] = tested on: mitochondria isolated from WS-1 normal human fibroblasts; experiment: as above; format: biochemical
Procedure: as §1
Alternatively, H460 cells were labeled with the fluorescent dye JC-1 (Molecular Probes), and analyzed for changes in red/green (F1-2/F1-1) fluorescence ratio after treatment with the various agents, by multiparametric flow cytometry. Cytochrome c content in pellets or supernatants of drug-treated isolated mitochondria was determined by Western blotting.

[4] = tested on: Ras-transformed NIH3T3 mitochondria; experiment: as above; format: biochemical
Procedure: as §1

[5] = tested on: normal mouse brain mitochondria; experiment: as above; format: biochemical
Procedure: as §1

[6] = tested on: normal mouse liver mitochondria; experiment: as above; format: biochemical
Procedure: as §1

[7] = tested on: mitochondria isolated from normal NIH3T3 cells; experiment: as above; format: biochemical
Procedure: as §1, with “potential. In some experiments, increasing concentrations (10-100 μg) of TMRM-loaded mitochondria isolated from HeLa or MCF-7 cells were diluted in 3 ml of SB buffer, normalized to a total protein concentration of 500 μg with BSA, and analyzed for changes in membrane potential in response to control or the various Hsp90 antagonists.” for “potential.”

[8] = tested on: mitochondria isolated from Raji lymphoblastoid cells; experiment: Cytochrome c release from isolated mitochondria (Western blotting); format: biochemical, human
Procedure: (§2) Tumor cell types were treated with controls or the various Hsp90 antagonists, and cytosolic extracts were harvested at increasing time intervals between 5-30 minutes and analyzed by Western blotting. For experiments in a cell-free system, purified mitochondria (20 μg) were suspended in 500 μl of SB buffer (0.2 M sucrose, 10 mM Tris-MOPS, pH 7.4, 5 mM succinate, 1 mM sodium phosphate, 10 μM EGTA-Tris, and 2 μM rotenone). Samples were treated with controls or the various Hsp90 antagonists for 20 minutes at 22° C. At the end of each incubation reaction, mitochondria and supernatants were separated by centrifugation at 6,000×g for 10 minutes, and analyzed by Western blotting.

[9] = tested on: mitochondria isolated from a p53−/− mouse lymphoma specimen; experiment: as above; format: biochemical
Procedure: as §2

[10] = tested on: primary human sarcoma sample mitochondria; experiment: as above; format: biochemical
Procedure: as §2

[11] = tested on: normal mouse liver mitochondria; experiment: Cytochrome c and Smac content of isolated mitochondria (Western blotting); format: biochemical
Procedure: as §2

Raji cells = experiment: Mitochondrial membrane potential in JC-1-loaded cells (flow cytometry); format: cell-based, human; conditions: within five minutes of addition
Procedure: as §1

HeLa cells [12] = experiment: Cytochrome c release into the cytosol of treated tumor cells (Western blotting); format: cell-based, human
HeLa cells [13] = experiment: Time-lapse videomicroscopy of cell morphology; format: cell-based, human; conditions: within minutes
Procedure: For time lapse videomicroscopy, HeLa cells were maintained in 35 mm glass-bottom tissue-culture dishes (Mat-tek). Prior to imaging, cells were incubated with 400 nM CM-H2XRos (M7513, Molecular Probes) under growth conditions for 15 minutes. After washes, fresh culture medium was added, and cells were imaged in an environmental chamber (PDMI-2; Harvard Apparatus) in complete medium with CO2 exchange (0.5 liters/minute) at 37° C. Cells were imaged every 1 minute using a 100× phase contrast lens with a green interference filter on an inverted microscope (Olympus IX-70). Images were captured on a CoolSnap HQ CCD camera (Roper Scientific) and concatenated using Metamorph software (Universal Imaging Corp.). Cells were imaged in the absence of any reagent for the first 10 minutes of the time lapse, at which point Shepherdin or cell permeable scrambled peptidomimetic was added dropwise in between acquisitions. Phase-contrast images of mitochondria were verified by the presence of CM-H2XRos labeling.

tumor cells = experiment: Cell viability by MTT, tumor cell types; format: cell-based; conditions: 1 hour exposure; MTT
[14] = tested on: normal human fibroblast cell types (WS-1, HGF, HFF); experiment: Cell viability by MTT, normal human fibroblast cell types
Procedure: Changes in protein expression in the various experiments of siRNA targeting were assessed by Western blotting. For analysis of TRAP-1-directed cytoprotection, primary nontransformed human fibroblasts HFF and WS-1 were transfected with control pcDNA3 or TRAP-1 cDNA by lipofectamine for 24 hours, exposed to increasing concentrations (0-1 μM) of the cell death stimulus staurosporine (STS), and analyzed for cell viability after additional 24 hours incubation by MTT. For analysis of apoptosis, p53+/+ or p53−/−HCT116 cells were treated with control or ANT-GA (100 μM), and analyzed for DEVDase activity (CaspaTag) and propidium iodide staining by simultaneous multiparametric flow cytometry, as described (Dohi et al., J. Clin. Invest. 114(8):1117-27, (2004); Plescia et al., Cancer Cell, 7:457-468, (2005)).

HeLa cells [15] = experiment: Cell viability by MTT, HeLa cells; conditions: 50 μM; cultures not treated with CsA

With `CSCC[C@@H](NC(=O)[C@@H](CCCCN)NC(=O)[C@@H](Cc1c[nH]c2ccccc12)NC(=O)[C@@H](CCCCN)NC(=O)[C@H](N)CCCCN)C(=O)N[C@H](CCCNC(=N)N)C(=O)N[C@H](CCCNC(=N)N)C(=O)N[C@H](CC(N)=O)C(=O)N[C@H](CCC(N)=O)C(=O)N[C@H](Cc1ccccc1)C(=O)N[C@H](Cc1c[nH]c2ccccc12)C(=O)N[C@@H](C(=O)N[C@H](CCCCN)C(=O)N[C@@H](C(=O)N[C@H](CCC(N)=O)C(=O)N[C@H](CCCNC(=N)N)C(=O)N[C@H](CC(C)C)C(=O)N[C@H](Cc1ccccc1)C(=O)N[C@H](C)C(=O)N[C@H](CS)C(=O)NCC(=O)N[C@H](CO)C(=O)N[C@H](CO)C(=O)N[C@H](Cc1c[nH]cn1)C(=O)N[C@H](CCCCN)C(N)=O)C(C)C)C(C)C` [Sheph-ANT] (H-[dK][dK][dW][dK][dM][dR][dR][dN][dQ][dF][dW][dV][dK][dV][dQ][dR][dL][dF][dA][dC]G[dS][dS][dH][dK]-NH2; N-terminus and C-terminus assumed) the “membrane potential of mitochondria” value [1] was “readily depolarized mitochondria”, the mitochondrial membrane potential [2] was “caused sudden loss of mitochondrial membrane potential; also recorded: induces a change in mitochondrial membrane potential” and the “membrane potential of mitochondria” value ([3]; WS-1 normal human fibroblasts) was “did not cause loss of membrane potential”. The “membrane potential of mitochondria” value ([3]; glucose-deprived WS-1, compared with Scram-ANT) was “did not significantly affect membrane potential”, the “mitochondrial membrane potential of normal cells” value ([3]; summary for normal cells (FIGS. 4A, C, E, G)) was “did not affect mitochondrial membrane potential of normal cells over background levels” and the “membrane potential of mitochondria” value [4] was “readily depolarized Ras-transformed NIH3T3 mitochondria”. The “membrane potential of mitochondria” value [5] was “did not affect membrane potential”, the “membrane potential of mitochondria” value [6] was “did not affect membrane potential; also recorded: had no effect on normal liver mitochondria, with or without CsA” and the “membrane potential of mitochondria” value [7] was “had no effect on mitochondria isolated from normal NIH3T3 cells”. The “release of cytochrome c from mitochondria” value [8] was “concentration-dependent release of cytochrome c; also recorded: reduces mitochondrial Cyt c in a dose-dependent manner”, the “cytochrome c release from mitochondria” value [9] was “induced cytochrome c release” and the “release of cytochrome c from mitochondria” value [10] was “concentration-dependent release of cytochrome c; also recorded: increases Cyt c release into the supernatant in a dose-dependent manner”. For the same compound, the “cytochrome c or Smac levels of mitochondria” value [11] was “had no effect on cytochrome c or Smac levels”, the “mitochondrial membrane potential in tumor cells” value (Raji cells) was “induced loss of mitochondrial membrane potential in tumor cells” and the “cytochrome c release into the cytosol” value (HeLa cells [12]) was “discharge of mitochondrial cytochrome c in the cytosol”. For the same compound, the “morphological features of apoptosis” value (HeLa cells [13]) was “exhibited within minutes morphological features of apoptosis”, the “tumor cell viability / killing” value (tumor cells) was “sufficient to kill disparate tumor cell types in a concentration-dependent manner; also recorded: triggered selective tumor cell death” and the “viability of normal human fibroblast cell types” value [14] was “did not affect the viability of various normal human fibroblast cell types”. The cell killing (HeLa cells [15]) was “complete cell killing”.

From patent US9987294B2, “Mitochondria-targeted anti-tumor agents” (University of Massachusetts, priority 2007, dated 2018)
